Key:
[1] = target: T1, Neutrophil elastase (Homo sapiens) (UniProt P08246); experiment: In vitro inhibitory activity against human leukocyte elastase (HLE), at a concentration of 15 uM
T1 sequence (whole entry): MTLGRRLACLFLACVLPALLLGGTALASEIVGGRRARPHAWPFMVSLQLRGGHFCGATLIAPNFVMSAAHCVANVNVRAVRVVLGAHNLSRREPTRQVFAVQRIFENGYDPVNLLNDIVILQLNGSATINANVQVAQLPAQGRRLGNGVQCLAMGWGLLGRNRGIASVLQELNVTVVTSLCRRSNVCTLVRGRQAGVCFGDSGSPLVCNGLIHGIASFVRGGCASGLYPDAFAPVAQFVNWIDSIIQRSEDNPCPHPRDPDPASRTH

[2] = target: T1, Neutrophil elastase (Homo sapiens); experiment: In vitro inhibitory activity against human leukocyte elastase (HLE), at a concentration of 1.5 uM
[3] = target: T1, Neutrophil elastase (Homo sapiens); experiment: In vitro inhibitory activity against human leukocyte elastase (HLE), at a concentration of 75 uM
Neutrophil elastase = target: T2, Neutrophil elastase (Homo sapiens, UniProt P08246); experiment: In vitro inhibitory activity against human leukocyte elastase (HLE)
T2 sequence (P08246 whole entry): T1 sequence (whole entry)

SMILES | inhibition [1] | inhibition [2] | inhibition [3] | IC50 (Neutrophil elastase)
O=c1oc(/C2=C/CCCCCC2)nc2ccccc12 | 64.5% | 23% | 87% | 7 µM
CCOC(=O)C1CCC(c2nc3ccccc3c(=O)o2)=CC1C (centres undefined) | 12% | 6% | 20.8% | –
O=c1oc(-c2ccco2)nc2ccccc12 | 65% | 22.6% | 88.7% | 5.5 µM
O=c1oc(-c2ccccc2)nc2ccccc12 | 45.7% | 16.2% | 76% | 17 µM
COc1ccc2c(c1)CCC=C2c1nc2ccccc2c(=O)o1 | 92.8% | 69.9% | 99.6% | 0.61 µM
